In brackets after ≈: the same amount, converted by molar mass.
What was measured:
Assay type in all cases: functional
Staphylococcus aureus [1] = assay: Antimicrobial activity against Staphylococcus aureus using pH 4.0 buffer as solvent by agar diffusion test
Escherichia coli [2] = assay: Antimicrobial activity against Escherichia coli using pH 4.0 buffer as solvent by agar diffusion test
Pseudomonas aeruginosa [3] = assay: Antimicrobial activity against Pseudomonas aeruginosa using pH 4.0 buffer as solvent by agar diffusion test
Bacillus subtilis [4] = assay: Antimicrobial activity against Bacillus subtilis using pH 4.0 buffer as solvent by agar diffusion test
Escherichia coli [5] = assay: Antimicrobial activity against Escherichia coli using distilled water as solvent by agar diffusion test
Pseudomonas aeruginosa [6] = assay: Antimicrobial activity against Pseudomonas aeruginosa using distilled water as solvent by agar diffusion test
Bacillus subtilis [7] = assay: Antimicrobial activity against Bacillus subtilis using distilled water as solvent by agar diffusion test
Staphylococcus aureus [8] = assay: Antimicrobial activity against Staphylococcus aureus using distilled water as solvent by agar diffusion test

SMILES | MIC (Staphylococcus aureus [1]) | MIC (Escherichia coli [2]) | MIC (Pseudomonas aeruginosa [3]) | MIC (Bacillus subtilis [4]) | MIC (Escherichia coli [5]) | MIC (Pseudomonas aeruginosa [6]) | MIC (Bacillus subtilis [7]) | MIC (Staphylococcus aureus [8])
CC[C@H]1C[C@H]2C[C@@]3(C(=O)OC)c4[nH]c5cc(OC)ccc5c4CCN(C2O)[C@@H]13 (some centres undefined) | 500 mg/L (≈ 1300 µM) | 500 mg/L (≈ 1300 µM) | 300 mg/L (≈ 780 µM) | 50 mg/L (≈ 130 µM) | – | – | – | –
C=CC1CN(C)[C@H]2Cc3c([nH]c4ccccc34)[C@H](c3cc4c5c([nH]c4cc3OC)[C@]3(C(=O)OC)C[C@@H]4C[C@H](CC)[C@@H]3N(CC5)C4O)C[C@H]1C2C(=O)OC (some centres undefined) | 65 mg/L (≈ 90.2 µM) | 170 mg/L (≈ 236 µM) | 65 mg/L (≈ 90.2 µM) | 8 mg/L (≈ 11.1 µM) | – | – | – | –
CC[C@H]1C[C@H]2C[C@@]3(C(=O)OC)c4[nH]c5cc(OC)c(OC)cc5c4CCN(C2O)[C@@H]13 (some centres undefined) | 140 mg/L (≈ 338 µM) | > 1000 mg/L | > 1000 mg/L | 60 mg/L (≈ 145 µM) | – | – | – | –
CN[C@@H]1[C@H](O[C@H]2[C@H](O[C@H]3[C@H](O)[C@@H](O)[C@H](N=C(N)N)[C@@H](O)[C@@H]3N=C(N)N)O[C@@H](C)[C@]2(O)C=O)O[C@@H](CO)[C@H](O)[C@H]1O [STREPTOMYCIN] | 5 mg/L (≈ 8.6 µM) | 80 mg/L (≈ 138 µM) | 7 mg/L (≈ 12 µM) | 1 mg/L (≈ 1.72 µM) | 0.5 mg/L (≈ 0.86 µM) | 12 mg/L (≈ 20.6 µM) | 0.2 mg/L (≈ 0.344 µM) | 1 mg/L (≈ 1.72 µM)

Continued, in another order:

MIC (Staphylococcus aureus [1]) | MIC (Escherichia coli [2]) | MIC (Pseudomonas aeruginosa [3]) | MIC (Bacillus subtilis [4]) | SMILES | MIC (Escherichia coli [5]) | MIC (Pseudomonas aeruginosa [6]) | MIC (Bacillus subtilis [7]) | MIC (Staphylococcus aureus [8])
45 mg/L (≈ 62.4 µM) | 750 mg/L (≈ 1040 µM) | 150 mg/L (≈ 208 µM) | 14 mg/L (≈ 19.4 µM) | C=CC1CN(C)[C@H]2Cc3c([nH]c4ccccc34)[C@H](c3c(OC)ccc4c5c([nH]c34)[C@]3(C(=O)OC)C[C@@H]4C[C@H](CC)[C@@H]3N(CC5)C4O)C[C@H]1C2C(=O)OC (some centres undefined) | – | – | – | –
35 mg/L (≈ 49.7 µM) | 110 mg/L (≈ 156 µM) | 400 mg/L (≈ 567 µM) | 15 mg/L (≈ 21.3 µM) | C=CC1CN(C)[C@H]2Cc3c([nH]c4ccccc34)[C@H](c3cc4c5c([nH]c4cc3OC)[C@]3(C(=O)OC)C[C@@H]4C[C@H](CC)[C@@H]3N(CC5)C4)C[C@H]1C2C(=O)OC (some centres undefined) [CONODURAMINE] | – | – | – | –
50 mg/L (≈ 70.9 µM) | 70 mg/L (≈ 99.3 µM) | 400 mg/L (≈ 567 µM) | 4 mg/L (≈ 5.67 µM) | C=CC1CN(C)[C@H]2Cc3c([nH]c4ccccc34)[C@H](c3c(OC)ccc4c5c([nH]c34)[C@]3(C(=O)OC)C[C@@H]4C[C@H](CC)[C@@H]3N(CC5)C4)C[C@H]1C2C(=O)OC (some centres undefined) [CONODURINE] | – | – | – | –
– | 100 mg/L (≈ 166 µM) | – | 50 mg/L (≈ 83.2 µM) | C=CC1CN(C)[C@@H]2Cc3c([nH]c4ccccc34)[C@@H](/C=C3\c4[nH]c5ccccc5c4CN4CC[C@H]3/C(=C\C)C4)C[C@@H]1C2C(=O)OC (some centres undefined) [VOBAPARICINE] | – | – | – | –
